{
  "source": "patent US20090163521A1",
  "about": "“Novel Pyrazolopyrimidinone Derivatives” (ORCHID RESEARCH LABORATORIES LIMITED, priority 2005, published 2009)",
  "key": {"TNF-α [1]": {"system": "TNF-α", "experiment": "In vitro measurement of TNF-α in LPS-stimulated human PBMC", "assay_type": "cell-based", "details": "LPS 1 μg/ml, 18 h", "protocol": "This assay determines the effect of test compounds on the production of TNF α in human Peripheral Blood Mononuclear Cells (PBMC). Compounds were tested for their ability to inhibit the activity of TNF α in human PBMC. PBMC were isolated from blood (from healthy volunteers) using BD Vacutainer CPT™ (Cell preparation tube, BD Bio Science) and suspended in RPMI medium (Physiol. Res. 52: 593-598, 2003). The test compounds were pre-incubated with PBMC (0.5 million/incubation well) for 15 minutes at 37° C. and then stimulated with Lipopolysaccharide (Escherichia coli: B4; 1 μg/ml) for 18 h at 37° C. in 5% CO2. The levels of TNFα in cell culture medium were estimated using enzyme linked Immunosorbent assay performed in a 96 well format as per the procedure of the manufacturer (Cayman Chemical, Ann Arbor, USA)."}, "Rat Paw Edema model": {"system": "Rat Paw Edema model", "experiment": "Carrageenan induced paw edema test in rat", "assay_type": "in vivo", "details": "5 mg/kg b. wt., p.o.; 3 hours after carrageenan", "protocol": "The carrageenan paw edema test was performed as described by Winter et al (Proc. Soc. Exp. Biol. Med, 111, 544, 1962). Male wistar rats were selected with body weights equivalent within each group. The rats were fasted for eighteen hours with free access to water. The rats were dosed orally with the test compound suspended in vehicle containing 0.25% carboxymethylcellulose and 0.5% Tween 80. The control rats were administered with vehicle alone. After an hour, the rats were injected with 0.1 ml of 1% Carrageenan solution in 0.9% saline into the sub-plantar surface of the right hind paw. Paw volume was measured using digital plethysmograph before and after 3 hours of carrageenan injection. The average of foot swelling in drug treated animals was compared with that of control animals. Anti-inflammatory activity was expressed as the percentage inhibition of edema compared with control group [Arzneim-Forsch/Drug Res., 43 (1), 1, 44-50, 1993; Ottemess and Bliven, Laboratory Models for Testing NSAIDs, In Non-Steroidal Anti-Inflammatory Drugs, (J. Lombardino, ed. 1985)]."}, "NCI-H460": {"system": "NCI-H460", "experiment": "DTP human tumor cell line screen, NCI-H460", "assay_type": "cell-based", "details": "100 μM; 48 hours; percent growth of control", "protocol": "(§1) The current assay utilizes a 384 well plate format and fluorescent staining technologies resulting in greater screening capacity for testing of synthetic samples.\n(§2) The cell lines of the cancer-screening panel are grown in RPMI 1640 medium containing 5% fetal bovine serum and 2 mM L-glutamine. For a typical screening experiment, cells are inoculated into 96 well microtiter plates in 100 μL. After cell inoculation, the micro-titer plates are incubated at 37° C., 5% CO2, 95% air and 100% relative humidity for 24 h prior to addition of experimental drugs. The cells are plated a densities of 5000 cells/well (MCF7), 1000 cells/well (NCI-H460), and 7500 cells/well (SF-268) to allow for varying doubling time of the cell lines. Each plate contains all three-cell lines, a series of dilutions of standard agents, total kill wells and appropriate controls. Plates are incubated under standard conditions for 24 hours prior to addition of experimental compounds or extracts.\n(§3) Experimental compounds are solubilized in dimethyl sulfoxide (DMSO) at 400-times the desired maximum test concentration (maximum final DMSO concentration of 0.25%) and stored frozen. Compounds are then diluted with complete media with 0.1% gentamicin sulfate (5 μl of test sample in 100% DMSO is added to 565 μl of complete medium). 20 μl of this solution is then dispensed into test wells containing 50 μl of cell suspension to yield a test concentration of 1.00E-04M.\n(§4) After compound addition, plates are incubated at standard conditions for 48 hours, 10 μl/well Alamar Blue is added and the plates are incubated for an additional 4 hours. Fluorescence is measured using an excitation wavelength of 530 nm and an emission wavelength of 590 nm.\n(§5) Percent growth is calculated on a plate-by-plate basis for test wells relative to control wells. Percent Growth is expressed as the ratio of fluorescence of the test well to the average fluorescence of the control wells ×100."}, "MCF-7": {"system": "MCF-7", "experiment": "DTP human tumor cell line screen, MCF-7", "assay_type": "cell-based", "details": "100 μM; 48 hours; percent growth of control", "protocol": "as §1, §2, §3, §4, §5"}, "SF-268": {"system": "SF-268", "experiment": "DTP human tumor cell line screen, SF-268", "assay_type": "cell-based", "details": "100 μM; 48 hours; percent growth of control", "protocol": "as §1, §2, §3, §4, §5"}, "Ulcerogenic potential": {"experiment": "Ulcerogenic potential", "assay_type": "in vivo, rat", "details": "oral; 4 hrs after administration; dose selected 50, 100, 200 mg/kg", "text": "In order to evaluate compound's role on the ulcer formation, the animals were sacrificed and the stomach was taken out and flushed with 1% formalin. Animals (male wistar 200 gm) were fasted for 18 hrs free access to water and the test compounds were suspended in 0.5% Tween 80 and 0.25% CMC (carboxymethylcellulose) solution to make a uniform suspension. After 4 hrs of oral administration of test compounds, all the animals were sacrificed by cervical dislocation. Dissect the stomach carefully and filled up with a sterile saline solution and embedded in 6% formalin solution. […] Compare the test compound treated groups with the vehicle treated groups. Dose selected: 50, 100, 200 mg/kg (Marco Romano et al, Journal of clinical Investigation, 1992; 2409-2421)."}, "TNF-α [2]": {"system": "TNF-α", "experiment": "LPS induced sepsis for measurement of TNF-α inhibition in mice", "assay_type": "in vivo", "details": "at 50 mg/kg, oral, serum 90 min after LPS", "protocol": "The LPS induced sepsis model in mice was performed as described by Les sekut et al (J Lab Clin Med 1994; 124:813-20). Female Swiss albino mice were selected and the body weights were equivalent within each group. The mice were fasted for 20 hours with free access to water. The mice were dosed orally with the test compound suspended in vehicle containing 0.5% Tween 80 in 0.25% Carboxy-methylcellulose sodium salt. The control mice were administered the vehicle alone. After 30 min of oral dosing, mice were injected with 500 μg of Lipopolysaccharide (Escherichia coli, LPS: B4 from Sigma) in phosphate buffer saline solution into the intraperitoneal cavity of the mice. After 90 min of LPS administration mice were bled via retro-orbital sinus puncture. Blood samples were stored overnight at 4° C. Serum samples were collected by centrifuging the samples at 400 rpm for 15 min at 4° C. Immediately the serum samples were analysed for TNFα levels using commercially available mouse TNF-α ELISA kit (Amersham Biosciences) and assay was performed by the manufacturer instruction."}},
  "data": [
    {"smiles": "CSc1ccc(-c2nc3[nH]nc(N)c3c(=O)n2-c2ccc(C)c(C)c2)cc1", "note": "[Example 2, 3-amino-5-(3,4-dimethylphenyl)-6-[4-(methylthio)phenyl]-1,5-dihydro-4H-pyrazolo[3,4-d]pyrimidin-4-one]", "values": [
      {"measurement": "inhibition at 10 µM", "setting": "TNF-α [1]", "value": 53.4, "unit": "%"},
      {"measurement": "Rat Paw Edema model % Inhibition", "setting": "Rat Paw Edema model", "value": "30.52 ± 10.3", "unit": "%"},
      {"measurement": "% T/C Lung (NCI-H460)", "setting": "NCI-H460", "value": 7, "unit": "%"},
      {"measurement": "% T/C Breast (MCF-7)", "setting": "MCF-7", "value": 31, "unit": "%"},
      {"measurement": "% T/C CNS (SF-268)", "setting": "SF-268", "value": 39, "unit": "%"},
      {"measurement": "Ulcer Incidence (Number of animals/Total number of animals)", "setting": "Ulcerogenic potential", "value": "No ulcer"},
      {"measurement": "TNF-α Inhibition (%)", "setting": "TNF-α [2]", "value": "34.29 (at 50 mg/kg) %"}
    ]}
  ]
}
